Measurements published in patent US20230265151A1, “GIP/GLP1 CO-AGONIST COMPOUNDS” (priority 2020, published 2023).
Read-outs that look alike come from different tables or passages of the source. *1 amine or outer side, *2 acyl side, *3 side chain or, on linkers, in order; H or OH if unused. Where a SMILES comes first, the peptide text is derived from it. Side-chain parts run from the residue outwards. [ ]: non-standard residue; d: D form. The star is where a group is joined. αMePhe(2-F) = C[C@](N)(Cc1ccccc1F)C(=O)O; C14 diacid = O=C(O)CCCCCCCCCCCCC(=O)*; εLys = N[C@@H](CCCCN[*:1])C(=O)[*:2]; αMeY = C[C@](N)(Cc1ccc(O)cc1)C(=O)O; 4Pal = N[C@@H](Cc1ccncc1)C(=O)O; αMeL = CC(C)C[C@](C)(N)C(=O)O; Orn = NCCC[C@H](N)C(=O)O; AEEA = NCCOCCOCC(=O)O; Aib = CC(C)(N)C(=O)O

Legend:
Type in all cases: cell-based
hGIPR = target: T1, hGIPR (Homo sapiens, UniProt P48546); assay: Functional cAMP formation (HTRF) in HEK-293 clonal cells expressing hGIPR, 0.1% bovine casein, without or with 1.0% human serum albumin; details: for EC50: geometric mean, read-out: hGIPR EC50, nM (SEM, n); for Emax: read-out: hGIPR Emax, % ± SEM
T1 construct: expressed in transfected cells
T1 sequence (P48546 22-466): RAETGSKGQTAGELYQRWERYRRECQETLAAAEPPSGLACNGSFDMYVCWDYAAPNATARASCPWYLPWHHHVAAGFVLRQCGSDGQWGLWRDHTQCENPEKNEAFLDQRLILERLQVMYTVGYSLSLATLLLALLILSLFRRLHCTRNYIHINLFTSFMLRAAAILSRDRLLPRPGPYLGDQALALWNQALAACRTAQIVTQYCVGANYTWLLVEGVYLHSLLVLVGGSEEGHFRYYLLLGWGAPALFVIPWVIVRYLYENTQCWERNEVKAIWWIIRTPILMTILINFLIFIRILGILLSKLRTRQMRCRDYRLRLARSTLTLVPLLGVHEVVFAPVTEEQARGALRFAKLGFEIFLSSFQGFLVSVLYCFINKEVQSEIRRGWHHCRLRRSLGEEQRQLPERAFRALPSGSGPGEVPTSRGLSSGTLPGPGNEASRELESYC
Procedure, shortened: (§1)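 Readings of the HTRF 665/620 nm ratio, which falls as cAMP rises, were converted to nM cAMP using a standard curve after 30 min peptide exposure at 37° C.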

hGCGR = target: T2, hGCGR (Homo sapiens, UniProt P47871); assay: Functional cAMP formation (HTRF) in HEK-293 clonal cells expressing hGCGR, 0.1% bovine casein, without or with 1.0% human serum albumin; details: geometric mean, read-out: hGCGR EC50, nM (SEM, n)
T2 construct: expressed in transfected cells
Procedure, shortened: as §1

hGLP-1R = hGLP-1R (Homo sapiens, UniProt P43220); assay: Functional cAMP formation (HTRF) in HEK-293 clonal cells expressing hGLP-1R, 0.1% bovine casein, without or with 1.0% human serum albumin; parameters: expressed in transfected cells; details: for EC50: geometric mean, read-out: hGLP-1R EC50, nM (SEM, n); for Emax: HEK293, percent of maximal response to GLP-1(7-36)NH2, 0.1% bovine casein, arithmetic mean, read-out: hGLP-1R Emax, % ± SEM
Procedure, shortened: as §1

[1] = 0.1% bovine casein and 1.0% human serum albumin, 37° C.
[2] = HEK293, 0.1% bovine casein and 1.0% human serum albumin, 37° C., percent of maximal response to GIP(1-42)NH2
[3] = HEK293, percent of maximal response to GIP(1-42)NH2, 37° C., 0.1% bovine casein, arithmetic mean
[4] = cAMP, incubated at 37° C., 0.1% bovine casein (no human serum albumin)

Sequence of hGLP-1R (P43220 24-463): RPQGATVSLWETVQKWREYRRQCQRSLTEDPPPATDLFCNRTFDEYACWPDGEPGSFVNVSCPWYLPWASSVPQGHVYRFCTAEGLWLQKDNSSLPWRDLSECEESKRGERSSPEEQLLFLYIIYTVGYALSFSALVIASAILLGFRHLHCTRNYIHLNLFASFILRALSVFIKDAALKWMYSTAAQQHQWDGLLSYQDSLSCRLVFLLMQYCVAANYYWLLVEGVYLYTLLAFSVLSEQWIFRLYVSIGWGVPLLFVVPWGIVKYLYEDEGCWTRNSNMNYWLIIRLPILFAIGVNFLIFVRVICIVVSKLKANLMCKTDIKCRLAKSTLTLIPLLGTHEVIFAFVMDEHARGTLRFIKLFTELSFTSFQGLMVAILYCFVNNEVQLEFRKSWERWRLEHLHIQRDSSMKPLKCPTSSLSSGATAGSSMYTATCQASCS
T2 sequence (P47871 26-477): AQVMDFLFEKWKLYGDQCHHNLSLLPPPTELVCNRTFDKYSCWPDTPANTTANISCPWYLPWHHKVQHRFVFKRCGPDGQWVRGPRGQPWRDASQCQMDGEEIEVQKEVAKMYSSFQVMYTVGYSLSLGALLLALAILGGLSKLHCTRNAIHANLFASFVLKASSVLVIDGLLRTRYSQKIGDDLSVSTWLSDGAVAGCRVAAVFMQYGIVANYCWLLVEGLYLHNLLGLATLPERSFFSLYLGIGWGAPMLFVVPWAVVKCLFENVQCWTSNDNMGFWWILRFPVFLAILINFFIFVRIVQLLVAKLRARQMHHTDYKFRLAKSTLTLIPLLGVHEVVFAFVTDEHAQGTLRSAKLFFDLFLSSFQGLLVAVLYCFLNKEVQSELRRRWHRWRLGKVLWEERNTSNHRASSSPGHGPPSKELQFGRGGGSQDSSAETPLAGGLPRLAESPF

Structure (SMILES)	EC50 (hGIPR; [1]) [nM]	Emax (hGIPR; [2]) [%]	Emax (hGIPR; [3]) [%]	EC50 (hGIPR; [4]) [nM]	EC50 (hGCGR; [1]) [nM]	EC50 (hGCGR; [4]) [nM]	EC50 (hGLP-1R; [1]) [nM]	Emax (hGLP-1R; 37° C.) [%]	EC50 (hGLP-1R; [4]) [nM]
CC[C@H](C)[C@H](NC(=O)[C@H](CC(C)C)NC(=O)[C@](C)(Cc1ccc(O)cc1)NC(=O)[C@@H](CCC(=O)O)NC(=O)[C@@H](NC(=O)[C@H](Cc1ccccc1)NC(=O)[C@H](CCC(=O)O)NC(=O)C(C)(C)NC(=O)[C@H](CCC(N)=O)NC(=O)[C@H](C)NC(=O)[C@H](CCCCNC(=O)COCCOCCNC(=O)CC[C@H](NC(=O)CCCc1ccc(C(C)(C)C)cc1)C(=O)O)NC(=O)[C@H](CCCN)NC(=O)[C@H](CC(=O)O)NC(=O)[C@H](CC(C)C)NC(=O)[C@](C)(CC(C)C)NC(=O)[C@@H](NC(=O)[C@H](CO)NC(=O)[C@H](Cc1ccncc1)NC(=O)[C@H](CC(=O)O)NC(=O)[C@H](CO)NC(=O)[C@@H](NC(=O)[C@](C)(Cc1ccccc1F)NC(=O)[C@@H](NC(=O)CNC(=O)[C@H](CCC(=O)O)NC(=O)C(C)(C)NC(=O)[C@@H](N)Cc1ccc(O)cc1)[C@@H](C)O)[C@@H](C)O)[C@@H](C)CC)[C@@H](C)CC)C(=O)N[C@@H](CCCCNC(=O)COCCOCCNC(=O)CC[C@H](NC(=O)CCCc1ccc(C(C)(C)C)cc1)C(=O)O)C(=O)NCC(=O)NCC(=O)N1CCC[C@H]1C(=O)N[C@@H](CO)C(=O)N[C@@H](CO)C(=O)NCC(=O)N[C@@H](C)C(=O)N1CCC[C@H]1C(=O)N1CCC[C@H]1C(=O)N1CCC[C@H]1C(=O)N[C@@H](CO)C(N)=O [Example 208]	0.126	64.1	94.9	0.018	> 9950	> 9950	1.58		
CC[C@H](C)[C@H](NC(=O)[C@H](CC(C)C)NC(=O)[C@](C)(Cc1ccc(O)cc1)NC(=O)[C@@H](CCC(=O)O)NC(=O)[C@@H](NC(=O)[C@H](Cc1ccccc1)NC(=O)[C@H](CCC(=O)O)NC(=O)C(C)(C)NC(=O)[C@H](CCC(N)=O)NC(=O)[C@H](C)NC(=O)[C@H](CCCCNC(=O)COCCOCCNC(=O)COCCOCCNC(=O)[C@@H](N)CCCCNC(=O)CCCCCCCCCCCCC(=O)O)NC(=O)[C@H](CCCN)NC(=O)[C@H](CC(=O)O)NC(=O)[C@H](CC(C)C)NC(=O)[C@](C)(CC(C)C)NC(=O)[C@@H](NC(=O)[C@H](CO)NC(=O)[C@H](Cc1ccncc1)NC(=O)[C@H](CC(=O)O)NC(=O)[C@H](CO)NC(=O)[C@@H](NC(=O)[C@](C)(Cc1ccccc1F)NC(=O)[C@@H](NC(=O)CNC(=O)[C@H](CCC(=O)O)NC(=O)C(C)(C)NC(=O)[C@@H](N)Cc1ccc(O)cc1)[C@@H](C)O)[C@@H](C)O)[C@@H](C)CC)[C@@H](C)CC)C(=O)N[C@@H](CCC(=O)O)C(=O)NCC(=O)NCC(=O)N[C@@H](CCCCNC(=O)COCCOCCNC(=O)COCCOCCNC(=O)[C@@H](N)CCCCNC(=O)CCCCCCCCCCCCC(=O)O)C(N)=O [Example 185] (H-Y[Aib]EGT[αMePhe(2-F)]TSD[4Pal]SI[αMeL]LD[Orn]K([AEEA-AEEA-εLys-C14 diacid])AQ[Aib]EFI[dE][αMeY]LIEGGK([AEEA-AEEA-εLys-C14 diacid])-NH2; N-terminus assumed)	0.335	86.2	94.5 ± 0.288	0.018	> 9950	> 9950	11.3	95.1 ± 1.74	0.419
CC[C@H](C)[C@H](NC(=O)[C@H](CCCN)NC(=O)[C@H](CC(=O)O)NC(=O)[C@H](CC(C)C)NC(=O)[C@](C)(CC(C)C)NC(=O)[C@@H](NC(=O)[C@H](CO)NC(=O)[C@H](Cc1ccncc1)NC(=O)[C@H](CC(=O)O)NC(=O)[C@H](CO)NC(=O)[C@@H](NC(=O)[C@](C)(Cc1ccccc1F)NC(=O)[C@@H](NC(=O)CNC(=O)[C@H](CCC(=O)O)NC(=O)C(C)(C)NC(=O)[C@@H](N)Cc1ccc(O)cc1)[C@@H](C)O)[C@@H](C)O)[C@@H](C)CC)C(=O)N[C@@H](C)C(=O)N[C@@H](CCC(N)=O)C(=O)NC(C)(C)C(=O)N[C@@H](CCCCNC(=O)COCCOCCNC(=O)COCCOCCNC(=O)CC[C@H](NC(=O)CCCc1ccc(C(C)(C)C)cc1)C(=O)O)C(=O)N[C@@H](Cc1ccccc1)C(=O)N[C@H](C(=O)N[C@H](CCC(=O)O)C(=O)N[C@@](C)(Cc1ccc(O)cc1)C(=O)N[C@@H](CC(C)C)C(=O)N[C@H](C(=O)N[C@@H](CCCCNC(=O)COCCOCCNC(=O)COCCOCCNC(=O)CC[C@H](NC(=O)CCCc1ccc(C(C)(C)C)cc1)C(=O)O)C(=O)NCC(=O)NCC(=O)N1CCC[C@H]1C(=O)N[C@@H](CO)C(=O)N[C@@H](CO)C(=O)NCC(=O)N[C@@H](C)C(=O)N1CCC[C@H]1C(=O)N1CCC[C@H]1C(=O)N1CCC[C@H]1C(=O)N[C@@H](CO)C(N)=O)[C@@H](C)CC)[C@@H](C)CC [Example 204]	0.341	83.3			> 9950	> 9950	2.44	126	
